This note sets out measurements from patent publication US4994468A, “Imidazoquinolone derivatives” (Kyowa Hakko Kogyo Co., Ltd., priority 1989, dated 1991).

The subject of the first data set is trachea strips of passively sensitized guinea pigs, antigen (EWA) induced contraction. Kind of data set: Effects on passive Schultz-Dale reaction (broncho-dilatory effects). In kind it is cell-based, guinea pig (Hartley male). The settings on record: Cavia porcellus; concentration of 50% relaxation; sensitized guinea pig trachea, antigen EWA 1 μg/ml, cumulative addition, 37° C. Here is the method: (a) Effects on passive Schultz-Dale reaction (broncho-dilatory effects). Guinea pigs were passively sensitized as follows. Hartley male guinea pigs weighing 350 to 500 g were injected intraperitoneally with rabbit anti-egg albumin (EWA) serum prepared by the method of Eda et al. [Folia pharmacol., Japon 66, 237, (1970)]. After 24 hours, the guinea pigs were stunned and exsanguinated, and then trachea was excised. The zig-zag strips of the […] prepared by the method of Emmerson and Mackay [J. Pharm. Pharmacol., 31, 798, (1979)]. The strips were suspended in Krebs-Henseleit solution at 37° C. under aeration of a mixed gas of 95% oxygen and 5% carbon dioxide, and incubated for one hour. Antigen (EWA) was then introduced in the solution (final concentration; 1 μg/ml), and the contraction was measured by isotonictrasducer (TD-112s, made by Nihon Kohden K.K., Japan) and recorded on a recorder (Type 3066, made by Yokogawa-Hokushin Denki, K.K. Japan). After the contraction curves reached plateau, the compounds were successively added in order to get cumulative concentration-relaxation curves.
In general, IC50 refers to the point on the concentration scale where inhibition reaches its midpoint. Consider `CCCCn1c(=O)c2ncn(C(C)C)c2c2ccccc21.Cl` [Compound 18W, 5-n-Butyl-1-isopropyl-1H,5H-imidazo[4,5-c]quinolin-4-one hydrochloride], for which the IC50 is 1.5 µM.

Turning to `CCCCn1cnc2c(=O)n(CCCC)c3ccccc3c21.Cl` [Compound 19W, 1,5-Di-n-butyl-1H,5H-imidazo[4,5-c]quinolin-4-one hydrochloride], the IC50 came out at 6.4 µM.

`CCCCn1c(=O)c2ncn(C)c2c2ccc(Cl)cc21.Cl` [Compound 24W, 5-n-Butyl-7-chloro-1-methyl-1H,5H-imidazo[4,5-c]quinolin-4-one hydrochloride]: the half-maximal inhibitory concentration (IC50) amounted to 0.9 µM.

Regarding `CCCCn1c(=O)c2ncn(C)c2c2cc(C)ccc21` [Compound 26, 5-n-Butyl-1,8-dimethyl-1H,5H-imidazo[4,5-c]quinolin-4-one], the half-maximal inhibitory concentration (IC50) turned out to be 9.8 µM.

In the case of `CCCCn1c(=O)c2ncn(C)c2c2c(C)cccc21.Cl` [Compound 27W, 5-n-Butyl-1,9-dimethyl-1H,5H-imidazo[4,5-c]quinolin-4-one hydrochloride], the IC50 is over 20 µM.

As to `CCCCn1c(=O)c2nc(S)n(C)c2c2ccccc21` [Compound 31, 5-n-Butyl-1-methyl-2-mercapto-1H,5H-imidazo[4,5-c] quinolin-4-one], the half-inhibitory concentration (IC50) was found to be 9.6 µM.

`CCCCn1c(=O)c2nnn(C)c2c2ccccc21` [Compound 32, 5-n-Butyl-1-methyl-1H,5H-triazolo[4,5-c]quinolin-4-one]: the IC50 is 1.6 µM.

With `CCCn1c(=O)[nH]c(=O)c2[nH]cnc21` [Enprofylline, reference compound], the half-maximal inhibitory concentration (IC50) was determined as 10 µM.

Take `CC(C)C(=O)c1c(C(C)C)nn2ccccc12` [KC 404, reference compound]: the IC50 is 0.86 µM.

A further data set deals with passive cutaneous anaphylaxis (PCA). Kind of data set: Antiallergic effects: 48 hour-homologous passive cutaneous anaphylaxis (PCA) test in rats. In kind it is in vivo, rat (Wistar male). Particulars: Rattus norvegicus; minimum effective dosage: suppression rate 50% or higher in at least one of three rats; oral, 1 hour before PCA challenge; read-out: Anti-allergic effect (MED). Here is the method: Antiallergic effects of compounds were assessed by passive cutaneous anaphylaxis (PCA) test in rats. Wistar male rats weighing 180 to 220 g were used for collection of antiserum and Wistar male rats weighing 120 to 140 g for PCA test.
(i) Preparation of anti EWA serum in rat
Anti-EWA rat serum was prepared by the method of Stotland and Share [Can. J. Physiol. Pharmacol., 52, 1114, (1974)] as follows. That is, 1 mg of EWA, 20 mg of aluminium hydroxide gel and 0.5 ml of mixed vaccine of pertussis, diphtheria and tetanus were mixed, and the mixture was subcutaneously injected in 4 portions into the foot part of the rats. After 14 days, the blood of sensitized rats was collected from carotid artery. The serum was separated by centrifugation from collected blood, and kept at -80° C. Titer of the 48 hour homologous PCA tests of the serum was 1:32.
(ii) Effects on 48 hour-homologous PCA tests in rats
Groups each consisting of three male rats were used, and 0.05 ml of anti-EWA serum diluted to 8 times with a physiological saline, was sensitized passively by giving intradermal injection at two depilated points on the dorsum. After 47 hours, the test compound or its solvent (saline or CMC solution) was orally administrated, and 1 hour thereafter, PCA reaction was induced by intravenous administration of 1% Evan's blue-saline (0.5 ml/100 g) containing 2 mg of […]. After 30 minutes, animals were sacrificed by bleeding and dorsal skin was stripped to determin the extravasated dye at blue-dyed reaction site, by the method of Katayama et al. [Microbiol. Immunol., 22, 89 (1978)]. The blue-dyed spots were scissored out and placed in a test tube containing 1 ml of 1N sodium hydroxide and incubated at 37° C. for 24 hours. 9 ml of a mixture of 0.6N phosphate:acetone (5:13) was added thereto. After shaking, the mixture was centrifuged at 2500 rpm for 10 minutes. A supernatant was separated, and extravasated dye in the supernatant was quantified by measuring absorbance of the supernatant at 620 nm. Prepared calibration curve was used for the quantification. An average of measurements at the two positions was made a value for one animal, and suppression rate of the one animal was calculated by following equation: [formula]
For `CCCCn1c(=O)c2ncn(C(C)C)c2c2ccccc21.Cl` [Compound 18W, 5-n-Butyl-1-isopropyl-1H,5H-imidazo[4,5-c]quinolin-4-one hydrochloride], the minimal effective dose is over 100 mg/kg.

As to `CCCCn1cnc2c(=O)n(CCCC)c3ccccc3c21.Cl` [Compound 19W, 1,5-Di-n-butyl-1H,5H-imidazo[4,5-c]quinolin-4-one hydrochloride], the minimal effective dose was over 100 mg/kg.

In the case of `CCCCn1c(=O)c2ncn(C)c2c2ccc(Cl)cc21.Cl` [Compound 24W, 5-n-Butyl-7-chloro-1-methyl-1H,5H-imidazo[4,5-c]quinolin-4-one hydrochloride], the minimal effective dose is over 100 mg/kg.

As for `CCCCn1c(=O)c2ncn(C)c2c2cc(C)ccc21` [Compound 26, 5-n-Butyl-1,8-dimethyl-1H,5H-imidazo[4,5-c]quinolin-4-one], the minimal effective dose came to 100 mg/kg.

With `CCCCn1c(=O)c2ncn(C)c2c2c(C)cccc21.Cl` [Compound 27W, 5-n-Butyl-1,9-dimethyl-1H,5H-imidazo[4,5-c]quinolin-4-one hydrochloride], the minimal effective dose turned out to be 100 mg/kg.

For `CCCCn1c(=O)c2nc(S)n(C)c2c2ccccc21` [Compound 31, 5-n-Butyl-1-methyl-2-mercapto-1H,5H-imidazo[4,5-c] quinolin-4-one], the minimal effective dose is over 100 mg/kg.

For `CCCCn1c(=O)c2nnn(C)c2c2ccccc21` [Compound 32, 5-n-Butyl-1-methyl-1H,5H-triazolo[4,5-c]quinolin-4-one], the minimal effective dose is over 100 mg/kg.

For `CCCn1c(=O)[nH]c(=O)c2[nH]cnc21` [Enprofylline, reference compound], the minimal effective dose was at most 100 mg/kg.

As to `CC(C)C(=O)c1c(C(C)C)nn2ccccc12` [KC 404, reference compound], the minimal effective dose was over 100 mg/kg.

The next data set deals with experimental asthma in passively sensitized guinea pigs. The data set can be described thus: Effects on experimental asthma. The settings on record: 50 mg/kg orally, one hour before aerosol antigen 1.5% EWA; mean + SEM of 5 or 10 animals; control 254 ± 18. The class given is in vivo, guinea pig (Hartley male). How it is done: (c) Effects on experimental asthma Guinea pigs were passively sensitized as follows. Hartley male guinea pigs weighing 350 to 500 g were intraperitoneally injected with 1 ml of rabbit EWA serum prepared by the method of Eda et al. [Folia pharmacol., Japon, 66, 237 (1970)]. The animals were treated with intraperitoneal injection of diphenhydramine (20 mg/kg) and propranolol (5 mg/kg), 30 minutes before administration of test compounds. 17 hours after the sensitization, the test compounds (50 mg/kg) were orally administrated to sensitized animals. After one hour from the administration of the test compounds, the guinea pigs were placed in plastic observation box and were exposed to an aerosal antigen of 1.5% EWA. The time until the onset of respiratory […] symptom [collapse time (second)] was measured as a result of experimental asthma.
For `CCCCn1c(=O)c2ncn(C(C)C)c2c2ccccc21.Cl` [Compound 18W, 5-n-Butyl-1-isopropyl-1H,5H-imidazo[4,5-c]quinolin-4-one hydrochloride], the “Experimental asthma (collapse time)” value came to 425 ± 50 s.

With `CCCCn1cnc2c(=O)n(CCCC)c3ccccc3c21.Cl` [Compound 19W, 1,5-Di-n-butyl-1H,5H-imidazo[4,5-c]quinolin-4-one hydrochloride], the “Experimental asthma (collapse time)” value is 503 ± 44 s.

For `CCCCn1c(=O)c2nc(S)n(C)c2c2ccccc21` [Compound 31, 5-n-Butyl-1-methyl-2-mercapto-1H,5H-imidazo[4,5-c] quinolin-4-one], the “Experimental asthma (collapse time)” value was 284 ± 48 s.

Turning to `Cn1c(=O)c2[nH]cnc2n(C)c1=O` [Theophylline, reference compound], the “Experimental asthma (collapse time)” value came to 414 ± 47 s.

Test system in another data set: not listed separately
The data set can be described thus: Acute toxicity. The settings on record: mouse, in vivo; po, mortality for seven days, male dd-mice. How it is done: The compounds were orally administrated (po: 300 mg/kg) to male dd-mice weighing 20 to 25 g. LD50 was determined by observing the mortality for seven days after the administration.
For orientation: LD50 means the dose at which mortality reaches 50%. Take `CCCCn1c(=O)c2ncn(C(C)C)c2c2ccccc21.Cl` [Compound 18W, 5-n-Butyl-1-isopropyl-1H,5H-imidazo[4,5-c]quinolin-4-one hydrochloride]: the LD50 at 168 h is over 300 mg/kg.

`CCCCn1cnc2c(=O)n(CCCC)c3ccccc3c21.Cl` [Compound 19W, 1,5-Di-n-butyl-1H,5H-imidazo[4,5-c]quinolin-4-one hydrochloride]: the median lethal dose (LD50) at 168 h was over 300 mg/kg.

In turn, `CCCCn1c(=O)c2ncn(C)c2c2ccc(Cl)cc21.Cl` [Compound 24W, 5-n-Butyl-7-chloro-1-methyl-1H,5H-imidazo[4,5-c]quinolin-4-one hydrochloride] displayed an LD50 at 168 h of over 300 mg/kg.

On to `CCCCn1c(=O)c2ncn(C)c2c2cc(C)ccc21` [Compound 26, 5-n-Butyl-1,8-dimethyl-1H,5H-imidazo[4,5-c]quinolin-4-one], for which the median lethal dose (LD50) at 168 h was over 300 mg/kg.

`CCCCn1c(=O)c2ncn(C)c2c2c(C)cccc21.Cl` [Compound 27W, 5-n-Butyl-1,9-dimethyl-1H,5H-imidazo[4,5-c]quinolin-4-one hydrochloride]: the 50% lethal dose (LD50) at 168 h was over 300 mg/kg.

In turn, `CCCCn1c(=O)c2nc(S)n(C)c2c2ccccc21` [Compound 31, 5-n-Butyl-1-methyl-2-mercapto-1H,5H-imidazo[4,5-c] quinolin-4-one] gave an LD50 at 168 h of over 300 mg/kg.

In the case of `CCCCn1c(=O)c2nnn(C)c2c2ccccc21` [Compound 32, 5-n-Butyl-1-methyl-1H,5H-triazolo[4,5-c]quinolin-4-one], the LD50 at 168 h is over 300 mg/kg.
